Source: patent US7678791B2, “Nitroheteroaryl-containing rifamycin derivatives” (Cumbre IP Ventures, L.P., priority 2006, dated 2010)
Values after ≈ are worked out from the molar mass of the structure shown. Where two headings read alike, the source gives them in different places.

Assays:
Assay type in all cases: cell-based
[1] = system: Clostridium difficile CB-1620; test: MIC, C. difficile; settings: Clostridioides difficile, CB1620
[2] = system: Escherichia coli ATCC 25922; test: MIC by microbroth dilution, E. coli
Text: (§1) Methods for dilution antimicrobial susceptibility tests for bacteria that grow aerobically, 5th ed. M7-A5. National Committee for Clinical Laboratory Standards, Wayne, Pa.).

[3] = system: Helicobacter pylori CB1572 (Rif-resistant, rpoB L525I, D530N); test: microbe, parasite or virus in culture; settings: read-out: MIC H. pylori CB1572 (Rif-resistant)
Text: as §1

[4] = system: Mycobacterium tuberculosis H37Rv; test: MIC, M. tuberculosis
[5] = system: Helicobacter pylori ATCC 700392; test: MIC by agar dilution, H. pylori
Text: as §1

[6] = system: Staphylococcus aureus ATCC 29213; test: MIC by microbroth dilution, S. aureus
Text: as §1

[7] = system: Bacteroides fragilis CB-1621; test: MIC, B. fragilis; settings: CB1621
[8] = system: Haemophilus influenzae ATCC 10211; test: MIC by microbroth dilution, H. influenzae
Text: as §1

[9] = ATCC25922, read-out: MIC E. coli ATCC# 25922
[10] = ATCC700392, read-out: MIC H. pylori ATCC# 700392
[11] = ATCC29213, read-out: MIC S. aureus ATCC# 29213

`CO[C@H]1/C=C/O[C@@]2(C)Oc3c(C)c(O)c4c(c3C2=O)C2=NC3(CCN(CCn5c([N+](=O)[O-])cnc5C)CC3)NC2=C(NC(=O)/C(C)=C\C=C\[C@H](C)[C@H](O)[C@@H](C)[C@@H](O)[C@@H](C)[C@H](OC(C)=O)[C@@H]1C)C4=O` [Example 1, 4-Deoxy-3,4-[2-spiro-[1-[2-(2-methyl-5-nitro-imidazol-1-yl)ethyl]-piperidin-4-yl]]-(1H)-imidazo-(2,5-dihydro)rifamycin S] gave an MIC [1] of 0.00025 µg/mL (≈ 0.000265 µM), an MIC [2, 9] of 16 µg/mL (≈ 16.9 µM) and an MIC [3] of 0.5 µg/mL (≈ 0.53 µM). For the same compound, the MIC [4] was 0.016 µg/mL (≈ 0.0169 µM), the MIC [5, 10] was ≤ 0.03 µg/mL and the MIC [6, 11] was 0.03 µg/mL (≈ 0.0318 µM). It also gave an MIC [7] of 0.03 µg/mL (≈ 0.0318 µM) and an MIC ([8]; ATCC10211, read-out: MIC H. influenzae ATCC# 10211) of 1 µg/mL (≈ 1.06 µM).

For `CO[C@H]1/C=C/O[C@@]2(C)Oc3c(C)c(O)c4c(O)c(c(/C=N/N5CCN(C)CC5)c(O)c4c3C2=O)NC(=O)/C(C)=C\C=C\[C@H](C)[C@H](O)[C@@H](C)[C@@H](O)[C@@H](C)[C@H](OC(C)=O)[C@@H]1C` [rifampin, reference compound], the MIC [1] was 0.001 µg/mL (≈ 0.00122 µM), the MIC ([2]; ATCC25922, microbroth dilution, read-out: MIC E. coli ATCC# 25922) was 8 µg/mL (≈ 9.72 µM) and the MIC [3] was > 32 µg/mL. The MIC ([5]; ATCC700392, agar dilution, read-out: MIC H. pylori ATCC# 700392) was 0.12 µg/mL (≈ 0.146 µM), the MIC ([6]; ATCC29213, microbroth dilution, read-out: MIC S. aureus ATCC# 29213) was 0.008 µg/mL (≈ 0.00972 µM) and the MIC [7] was 0.06 µg/mL (≈ 0.0729 µM). For the same compound, the MIC ([8]; ATCC10211, microbroth dilution, read-out: MIC H. influenzae ATCC# 10211) was 0.24 µg/mL (≈ 0.292 µM).

In the case of `CO[C@H]1/C=C/O[C@@]2(C)Oc3c(C)c(O)c4c(O)c(c(/C=N/N5CCN(CCn6c([N+](=O)[O-])cnc6C)CC5)c(O)c4c3C2=O)NC(=O)/C(C)=C\C=C\[C@H](C)[C@H](O)[C@@H](C)[C@@H](O)[C@@H](C)[C@H](OC(C)=O)[C@@H]1C` [Example 3, 3-[[[4-[2-(2-methyl-5-nitro-imidazol-1-yl)ethyl]-1-piperazinyl]imino]methyl]rifamycin SV], the MIC [3] is reported as 2 µg/mL (≈ 2.08 µM), the MIC [5, 10] is reported as 0.5 µg/mL (≈ 0.52 µM) and the MIC [6, 11] is reported as 0.03 µg/mL (≈ 0.0312 µM).

With `CO[C@H]1/C=C/O[C@@]2(C)Oc3c(C)c(O)c4c(=O)c(c5oc6cc(N7CCN(CCn8c([N+](=O)[O-])cnc8C)CC7)cc(O)c6nc-5c4c3C2=O)NC(=O)/C(C)=C\C=C\[C@H](C)[C@H](O)[C@@H](C)[C@@H](O)[C@@H](C)[C@H](OC(C)=O)[C@@H]1C` [Example 4, 3′-Hydroxy-5′-[4-[2-(2-methyl-5-nitro-imidazol-1-yl)ethyl]-1-piperazinyl]benzoxazinorifamycin] the MIC [2, 9] was > 8 µg/mL, the MIC [3] was 1 µg/mL (≈ 0.963 µM) and the MIC [5, 10] was ≤ 0.03 µg/mL. For the same compound, the MIC [6, 11] was < 0.004 µg/mL.
